In US4378358A, “Benzothiazinopyrazoles having pharmacological activity” (Mediolanum Farmaceutici s.r.l., priority 1980, dated 1983):
Where two headings read alike, the source gives them in different places.

Key:
in vivo [1] = format: in vivo; details: rat, in vivo, po; read-out: LD 50 (Litchfield and Wilcoxon)
Rat = experiment: in vivo; format: in vivo
in vivo [2] = details: rat, in vivo, po; for mortality at 120 h: read-out: % of dead animals; for mortality: read-out: % of dead animals per day
Text: (§1) Five days subacute toxicity in rats per os
(§2) Animals: 5 female rats for each group, average body weight: 150g.

rats [3] = experiment: in vivo; details: 5 days, rats, per os
Text: as §1, §2

rats [4] = format: in vivo, rat; details: for Average number of lesions per animal / Gastrolesive effect, relative potency to naproxen / Gastrolesive effect, relative potency to piroxicam: single oral administration, male rats
Experimental: The test was modified by increasing the fast period to 70 hours and giving the total dose of substance in one single oral administration.
Animals: 10 male rats for each group, average body weight: 150g.

pyresis = experiment: Antipyretic activity according to Burn et al.; format: in vivo, rat; details: for Reduction of the pyresis at hour 4: female rats
Text: Animals: 6 female rats for each group, average body weight 200 g.

phenylquinone writhes = experiment: Analgesic activity according to Hendershot et al., phenylquinone writhes, modified; format: in vivo, mouse
Experimental: Analgesic activity according to HENDERSHOT et al., Jour. Pharm.
The test was modified by numbering the writhes only along the time interval from 5 to 15 minutes since the injection of phenylquinone. The injection was made 2 hours after the oral administration of the compound to be tested.
Animals: 8 female mice for each group, average body weight: 25g

carrageenin paw edema = experiment: Antiinflammatory activity according to Winter et al., carrageenin paw edema, modified; format: in vivo, rat
Experimental: Antiinflammatory activity according to WINTER et al., Proc. Soc. Exp. Biol. Med.; 111, 544; 1962.
The test was modified in that the injection of carrageenin and the administration of the compound by gastric gavage were carried out simultaneously and the paw edema was measured at the plethysmograph after 4 hours.
Animals: 6 female rats for each group, average body weight: 150g

in vivo [5] = details: mouse, po
[6] = 100 mg/kg (maximum tested dose)
[7] = 50 mg/g (so in the source) per os
[8] = 100 mg/g (so in the source) per os
[9] = Mus musculus, 50 mg/kg oral, 2 h before phenylquinone, 5-15 min, female mice
[10] = Mus musculus, 100 mg/kg oral, 2 h before phenylquinone, 5-15 min, female mice
[11] = Rattus norvegicus, po, 4 h, 50 mg/kg per os, female rats, read-out: % inhibition of the edema after 4 hours
[12] = Rattus norvegicus, po, 4 h, 100 mg/kg per os, female rats, read-out: % inhibition of the edema after 4 hours

Compound | LD50 (in vivo [1]) | Subacute toxicity, relative ratio to naproxen (rats [3]) | Subacute toxicity, relative ratio to piroxicam (rats [3]) | Average number of lesions per animal (rats [4]; [6]) | Gastrolesive effect, relative potency to naproxen (rats [4]) | Gastrolesive effect, relative potency to piroxicam (rats [4]) | Antipyretic relative potency to naproxen (pyresis; [7]) | Antipyretic relative potency to piroxicam (pyresis; [7]) | Reduction of the pyresis at hour 4 (pyresis; [7]) | Antipyretic relative potency to naproxen (pyresis; [8]) | Antipyretic relative potency to piroxicam (pyresis; [8]) | Reduction of the pyresis at hour 4 (pyresis; [8]) | Analgesic relative potency to naproxen (phenylquinone writhes; 50 mg/kg oral) | Analgesic relative potency to piroxicam (phenylquinone writhes; 50 mg/kg oral) | Analgesic relative potency to naproxen (phenylquinone writhes; 100 mg/kg oral) | Analgesic relative potency to piroxicam (phenylquinone writhes; 100 mg/kg oral) | inhibition in vivo at 50 mg/kg (phenylquinone writhes; [9]) | inhibition in vivo at 100 mg/kg (phenylquinone writhes; [10]) | Antiinflammatory relative potency to naproxen (carrageenin paw edema; 50 mg/kg per os) | Antiinflammatory relative potency to piroxicam (carrageenin paw edema; 50 mg/kg per os) | further results
CCN(CC)CCNC(=O)c1nn(-c2ccccc2)c2c1N(C)S(=O)(=O)c1ccccc1-2 [Compound I-1, 2-methyl-5-phenyl-1,2-benzothiazino[3,4-d]pyrazole-3-yl-carboxylic acid, 2-(N,N-diethylamino)ethylamide,S,S-dioxide] | 2700 mg/kg | 4 | 10 | 0 | > 20 | 100 | 0.8 | 1.0 | 0.86 °C | 1.3 | 1.6 | 1.44 °C | 1.3 | 0.9 | 2.2 | 1.6 | 43% | 72% | 0.5 | 0.2 | LD 50, relative ratio to piroxicam (Rat; in vivo): 10.0; mortality at 120 h (in vivo [2]; 200 mg/kg/day): 0%; Antiinflammatory relative potency to naproxen (carrageenin paw edema; 100 mg/kg per os): 0.8; Antiinflammatory relative potency to piroxicam (carrageenin paw edema; 100 mg/kg per os): 0.4; inhibition in vivo at 50 mg/kg (carrageenin paw edema; [11]): 10%; inhibition in vivo at 100 mg/kg (carrageenin paw edema; [12]): 16%; LD 50, relative ratio to naproxen (Mouse; per os): 2.3; LD 50, relative ratio to piroxicam (Mouse; per os): 7.9; LD50 (in vivo [5]): 2850 mg/kg
CN1c2c(C(=O)NCCCNC3CCCCC3)nn(-c3ccccc3)c2-c2ccccc2S1(=O)=O [Compound I-4] | 1090 mg/kg | 2 | 5 | 0 | > 20 | 100 | 1.2 | 1.6 | 1.40 °C | 1.3 | 1.7 | 1.47 °C | 1.3 | 0.9 | 1.8 | 1.3 | 42% | 59% | 1.7 | 0.8 | LD 50, relative ratio to piroxicam (Rat; in vivo): 4.0; mortality at 120 h (in vivo [2]; 100 mg/kg/day): 0%; mortality (in vivo [2]; 100 mg/kg/day): 0%; mortality at 120 h (in vivo [2]; 200 mg/kg/day): 20%; mortality (in vivo [2]; 200 mg/kg/day): 4%; Antiinflammatory relative potency to naproxen (carrageenin paw edema; 100 mg/kg per os): 2.4; Antiinflammatory relative potency to piroxicam (carrageenin paw edema; 100 mg/kg per os): 1.1; inhibition in vivo at 50 mg/kg (carrageenin paw edema; [11]): 36%; inhibition in vivo at 100 mg/kg (carrageenin paw edema; [12]): 50%; LD 50, relative ratio to piroxicam (Mouse; in vivo): 2.0; LD50 (in vivo [5]): 720 mg/kg
CCN1CCCC1CNC(=O)c1nn(-c2ccccc2)c2c1N(C)S(=O)(=O)c1ccccc1-2 (stereo not shown) [Compound I-24] | 1060 mg/kg | 4 | 10 | 0 | > 20 | 100 | 0.7 | 0.9 | 0.81 °C | 1.1 | 1.4 | 1.24 °C | 0.9 | 0.7 | 1.4 | 1.0 | 30% | 47% | 1.8 | 0.8 | LD 50, relative ratio to piroxicam (Rat; per os): 3.9; mortality at 120 h (in vivo [2]; 200 mg/kg/day): 0%; Antiinflammatory relative potency to naproxen (carrageenin paw edema; 100 mg/kg per os): 2.1; Antiinflammatory relative potency to piroxicam (carrageenin paw edema; 100 mg/kg per os): 1.0; inhibition in vivo at 50 mg/kg (carrageenin paw edema; [11]): 38%; inhibition in vivo at 100 mg/kg (carrageenin paw edema; [12]): 45%; LD 50, relative ratio to piroxicam (Mouse; per os): 2.1; LD50 (in vivo [5]): 760 mg/kg
COc1ccc2cc([C@H](C)C(=O)O)ccc2c1 [Naproxen, naproxen, reference compound] |  |  |  |  |  |  |  |  |  |  |  |  |  |  |  |  |  |  |  |  | Average number of lesions per animal (rats [4]; 5 mg/kg): 0; Average number of lesions per animal (rats [4]; 7.5 mg/kg): 0.9; Gastric ulcerogenicity (in words) (rats [4]; rats): considerable gastrolesive power; Reduction of the pyresis at hour 4 (pyresis; 30 mg/g (so in the source) per os): 1.12 °C; inhibition in vivo at 30 mg/kg (phenylquinone writhes; Mus musculus, 30 mg/kg oral, 2 h before phenylquinone, 5-15 min, female mice): 33%; inhibition in vivo at 30 mg/kg (carrageenin paw edema; Rattus norvegicus, po, 4 h, 30 mg/kg per os, female rats, read-out: % inhibition of the edema after 4 hours): 21%
CN(C)CCCNC(=O)c1nn(-c2ccccc2)c2c1N(C)S(=O)(=O)c1ccccc1-2 [Compound I-2] | 2400 mg/kg | 4 | 10 | 0 | > 20 | 100 | 0.5 | 0.7 | 0.58 °C | 0.8 | 1.0 | 0.89 °C | 2.1 | 1.5 | 2.8 | 2.0 | 68% | 92% | 0.6 | 0.3 | LD 50, relative ratio to naproxen (Rat; per os): 4.4; LD 50, relative ratio to piroxicam (Rat; per os): 8.9; mortality at 120 h (in vivo [2]; 200 mg/kg/day): 0%; Antiinflammatory relative potency to naproxen (carrageenin paw edema; 100 mg/kg per os): 0.8; Antiinflammatory relative potency to piroxicam (carrageenin paw edema; 100 mg/kg per os): 0.4; inhibition in vivo at 50 mg/kg (carrageenin paw edema; [11]): 12%; inhibition in vivo at 100 mg/kg (carrageenin paw edema; [12]): 17%; LD 50, relative ratio to naproxen (Mouse; per os): 1.1; LD 50, relative ratio to piroxicam (Mouse; per os): 3.8; LD50 (in vivo [5]): 1380 mg/kg
CCN(CC)CCNC(=O)c1nn(-c2cccc(F)c2)c2c1N(C)S(=O)(=O)c1ccccc1-2 [Compound I-20] | 2220 mg/kg | 7 | 17 | 0 | > 20 | 100 | 0.4 | 0.5 | 0.45 °C | 0.7 | 0.8 | 0.75 °C | 1.3 | 1.0 | 2.2 | 1.6 | 44% | 72% | 0.7 | 0.3 | LD 50, relative ratio to naproxen (Rat; per os): 4.1; LD 50, relative ratio to piroxicam (Rat; per os): 8.2; mortality at 120 h (in vivo [2]; 350 mg/kg/day): 0%; Antiinflammatory relative potency to naproxen (carrageenin paw edema; 100 mg/kg per os): 1.0; Antiinflammatory relative potency to piroxicam (carrageenin paw edema; 100 mg/kg per os): 0.5; inhibition in vivo at 50 mg/kg (carrageenin paw edema; [11]): 15%; inhibition in vivo at 100 mg/kg (carrageenin paw edema; [12]): 21%; LD 50, relative ratio to naproxen (Mouse; per os): 1.3; LD 50, relative ratio to piroxicam (Mouse; per os): 4.4; LD50 (in vivo [5]): 1600 mg/kg
